Results on 27 compounds are retold here after patent US20030171406A1, “Medicinal compositions containing propenone derivatives” (priority 2000, published 2003).

Where two headings read alike, the source gives them in different places.

The test system of one data set is HIV (HTLV-IIIB strain). Nature of the data set: MTT assay, MT-4 cells infected with HIV. The data set is classed as cell-based. To be noted: 5 days, inhibits 50% of cell damage caused by virus. Here is the method:
The inhibitory effects of each anti-human immunodeficiency virus active substance against human immunodeficiency virus have been determined by MTT assay described below.
(1) Human T cell strain Molt-4 clone 8 persistently infected HIV (HTLV-IIIB strain) was cultivated in RPMI-1640 medium supplemented with 10% fatal bovine serum, and supernatant was filtered, measured RT activity, and stored at −80° C. On the other hand, each human anti-immunodeficiency virus active substance was diluted to fixed concentration in culture medium, they were plated to 96-well microtiter plate. Subsequently, 100 μL (3.5×10^4 cells) of MT-4 cell suspension was plated to 96-well microtiter plate, and then above mentioned supernatant containing HIV, which was diluted by culture medium, was added 50 μL (60 pfu (plaque forming unit.)) to 96-well microtiter plate.
(2) After cultivation at 37° C. for 5 days in CO2 incubator, into all well was added 30 μL per well 3-(4,5-[…])-2,5-diphenyltetrazolium bromide (MTT) 5 mg/mL) and PBS, and then incubated for 1 h.
In this time, alive cells reduced MTT and formazan was precipitated, therefore, 150 μL of cell supernatants were removed from all wells, and then 150 μL of lysate (10% triton X-100 and 0.4% (v/v) HCl-containing isopropanol) was added, and formazan was eluated on a plate shaker.
Background: Tetrazolium dyes change colour on reduction, which living cells bring about.

The next data set deals with HIV-1 integrase (Human immunodeficiency virus type 1 group M subtype B, UniProt P12497). Nature of the data set: HIV-1 integrase inhibition assay (microtiter plate, substrate/target DNA).
The mark [1] stands for this setting: Human immunodeficiency virus 1, MT4, 120 h, read-out: EC50.

Procedure for HIV-1 integrase: Substrate DNA and target DNA, which sequences were indicated below, were synthesized by Amersham Pharmacia Biotech and dissolved in KTE buffer (composition: 100 mM KCl, 1 mM EDTA, 10 mM Tris-HCl (pH 7.6)) at concentration of 2 pmol/μL and 5 pmol/μL, respectively. The DNA solutions were annealed with each complement by slowly cooling after heating.
(2) Calculations of the percent inhibitions (the IC50 values of test compounds)
Streptavidin, obtained from Vector Laboratories, was dissolved in 0.1 M carbonate buffer (composition: 90 mM Na2CO3, 10 mM NaHCO3) at concentration of 40 μg/mL. After coating each well of microtiter plates (obtained from NUNC) with 50 μL of the above solution at 4° C. over night, each well was washed twice with PBS (composition: 13.7 mM NaCl, 0.27 mM KCl, 0.43 mM Na2HPO4, 0.14 mM KH2PO4) and blocked with 300 μL of 1% skim milk in PBS for 30 min. Additionally, each well was washed twice with PBS and added 50 μL of substrate DNA solution (2 pmol/μL). The microtiter plates were kept at room temperature for 30 min. Then, each well was washed twice with PBS and once with H2O.
Subsequently, in the each well prepared above were added 45 μL of the reaction buffer prepared from 12 μL of the buffer (composition: 150 mM MOPS (pH 7.2), 75 mM MnCl2, 50 mM 2-mercaptoethanol, 25% glycerol, 500 μg/mL bovine serum albumin-fraction V), 1 μL of target DNA (5 pmol/μL), and 32 μL of the distilled water. Additionally, 6 μL of either a test compound in DMSO or DMSO for positive control(PC) was mixed with the above reaction buffer, then 9 μL of an integrase solution (30 pmol) was added and mixed well. In the well of negative control (NC) was added 9 μL of the integrase dilution buffer (composition: 20 mM MOPS (pH7.2), 400 mM potassium glutamate, 1 mM EDTA, 0.1% NP-40, 20% glycerol, 1 mM DTT, 4M urea).
The microtiter plates were incubated at 30° C. for 1 hour. The reaction solution was removed and each well was washed twice with PBS. Subsequently, each well of the microtiter plates was filled with 100 μL of anti-digoxigenin antibody labeled with alkaline phosphatase (Sheep Fab fragment: obtained from Boehringer) and incubated at 30° C. for 1 hour. Then, each well was washed twice with 0.05% Tween20 in PBS and once with PBS. Next, 150 μL of the Alkaline phosphatase reaction buffer (composition: 10 mM p-Nitrophenylphosphate (obtained from Vector Laboratories), 5 mM MgCl2, 100 mM NaCl, 100 mM Tris-HCl (pH 9.5))was added in each well. […] The optical density (OD) at 405 nm of each well was measured and the percent inhibition was determined by the following expression.
The percent inhibition (%)=100[1-{(C abs.−NC abs.)/(PC abs.−NC abs.)}]
C abs.; the OD of the well of the compounds
NC abs.: the OD of the negative control (NC)
PC abs.: the OD of the positive control (PC)
IC50(μg/mL)=x-{(X-50)(x-y)/(X-Y)}

The term EC50 denotes the concentration needed to bring the measured effect to its halfway point. “5-[(:3,5-dichlorophenyl)thio]-4-(1-methylethyl)-1-(4-pyridynylmethyl)-1H-imidazole-2-methanol carbamate [Capravirine]”: the EC50 in the data set with HIV (HTLV-IIIB strain) was found to be 0.0014 mg/L. `Cc1c(O)cccc1C(=O)N[C@@H](CSc1ccccc1)[C@H](O)CN1C[C@H]2CCCC[C@H]2C[C@H]1C(=O)NC(C)(C)C` (relative stereo) [Nelfinavir, [3S-[2(2S*,3S*),3α,4aβ,8aβ]]-N-(1,1-dimethylethyl)-decahydro-2-[2-hydroxy-3-[(3-hydroxy-2-methylbenzoyl)amino]-4-(phenylthio)butyl]-3-isoquinolinecarboxamide]: the EC50 in the data set on HIV (HTLV-IIIB strain) (setting [1]) amounted to 0.01 mg/L.

As for `CC(C)c1nc(CN(C)C(=O)N[C@H](C(=O)N[C@@H](Cc2ccccc2)C[C@H](O)[C@H](Cc2ccccc2)NC(=O)OCc2cncs2)C(C)C)cs1` (relative stereo) [Ritonavir, [5S-(5R*,8R*,10R*,11R*)]-10-hydroxy-2-methyl-5-(1-methylethyl)-1-[2-(1-methylethyl)-4-thiazolyl]-3,6-dioxo-8,10-bis(phenylmethyl)-2,4,7,12-tetraazatridecane-13-hydroxy acid 5-thiazolylmethyl ester], the EC50 with HIV (HTLV-IIIB strain) (setting [1]) was determined as 0.026 mg/L.

Turning to `Nc1nc(NC2CC2)c2ncn([C@H]3C=C[C@@H](CO)C3)c2n1` [Abacavir], the EC50 with HIV (HTLV-IIIB strain) (setting [1]) was determined as 0.63 mg/L.

What is called IC50 is the concentration at which inhibition is half-maximal. A higher IC50 goes with a need for much substance. Usually melting point stands for the temperature, or range, at which the solid turns liquid. Compound `O=C(C=C(O)c1nn[nH]n1)c1ccc(Cc2ccc(F)cc2)o1` [Compound I-3, 1-[5-(4-Fluorobenzyl)furan-2-yl]-3-hydroxy-3-(2H-tetrazol-5-yl)propenone] returned a melting point of 121 to 123 °C. In addition, inhibition at HIV-1 integrase was half-maximal at 1.27 µM (IC50).

`O=C(C=C(O)c1nn[nH]n1)c1occc1Cc1ccc(F)cc1` [Compound I-11, 1-[3-(4-Fluorobenzyl)furan-2-yl]-3-hydroxy-3-(2H-tetrazol-5-yl)propenone] came in with a melting point of 171 to 174 °C. At HIV-1 integrase, this compound showed an IC50 of 1.34 µM. In the same order, the values of `O=C(C=C(O)c1nc[nH]n1)c1occc1Cc1ccc(F)cc1` [Compound I-12, 1-[3-(4-Fluorobenzyl)furan-2-yl]-3-hydroxy-3-(1H-1,2,4-triazol-3-yl)propenone] are 221 to 223 °C and 1.37 µM. `CCCn1cc(Cc2ccc(F)cc2)c(C(=O)C=C(O)c2nc[nH]n2)c1` [Compound I-17, 1-[[4-(4-Fluorobenzyl)-1-propyl]pyrrol-3-yl]-3-hydroxy-3-(1H-1,2,4-triazol-3-yl)propenone] showed a melting point of 210 to 211 °C. Also, the IC50 against HIV-1 integrase was 4.51 µM. In the same order, the values of `O=C(C=C(O)c1nc[nH]n1)c1c[nH]cc1Cc1ccc(F)cc1` [Compound I-19, 1-[4-(4-fluorobenzyl)pyrrol-3-yl]-3-hydroxy-3-(1H-1,2,4-triazol-3-yl)propenone] are 210 to 213 °C and 2.02 µM. In the case of `O=C(C=C(O)c1nn[nH]n1)c1ccoc1Cc1ccc(F)cc1` [Compound I-20, 1-[2-(4-Fluorobenzyl)furan-3-yl]-3-hydroxy-3-(2H-tetrazol-5-yl)propenone], the melting point is 150 to 153 °C. On HIV-1 integrase, this compound showed a half-inhibitory concentration (IC50) of 1.02 µM. The like results for `O=C(C=C(O)c1nn[nH]n1)c1cn(S(=O)(=O)c2ccccc2)cc1CCc1ccccc1` [Compound I-21, 1-[[1-Benzenesulfonyl-4-(2-phenylethyl)]pyrrol-3-yl]-3-hydroxy-3-(2H-tetrazol-5-yl)propenone] were, in that order, 178 to 181 °C and 1.2 µM. The like results for `O=C(C=C(O)c1nn[nH]n1)c1c[nH]cc1CCc1ccccc1` [Compound I-22, 3-Hydroxy-1-[(4-(2-phenylethyl))pyrrol-3-yl]-3-(2H-tetrazol-5-yl)propenone] were, in that order, 228 to 230 °C and 1.91 µM. `O=C(C=C(O)c1nc[nH]n1)c1ccoc1Cc1ccc(F)cc1` [Compound I-25, 1-[2-(4-Fluorobenzyl)furan-3-yl]-3-hydroxy-3-(1H-1,2,4-triazol-3-yl)propenone]: the melting point fell in the range of 144 to 147 °C. This compound had an IC50 against HIV-1 integrase of 1.53 µM. In the case of `O=C(C=C(O)c1nc[nH]n1)c1cc(C(=O)O)n(Cc2ccccc2)c1` [Compound I-29, 1-[(1-Benzyl-5-carboxy)pyrrol-3-yl]-3-hydroxy-3-(1H-1,2,4-triazol-3-yl)propenone], the melting point fell in the range of 264 to 265 °C. For the same compound, at HIV-1 integrase, half-maximal inhibition (IC50) was put at 2.96 µM. In the case of `O=C(C=C(O)c1ccccn1)c1ccc(Cc2ccc(F)cc2)o1` [Compound I-46, 1-[5-(4-Fluorobenzyl)furan-2-yl]-3-hydroxy-3-(pyridin-2-yl)propenone], the melting point lay within 84 to 85 °C. Besides, the IC50 against HIV-1 integrase is 1.36 µM. `O=C(C=C(O)c1ncccn1)c1ccc(Cc2ccc(F)cc2)o1` [Compound I-47, 1-[5-(4-Fluorobenzyl)furan-2-yl]-3-hydroxy-3-(pyrimidin-2-yl)propenone] had an IC50 at HIV-1 integrase of 1.08 µM.

`O=C(C=C(O)c1ccccn1)c1cnc(Cc2ccc(F)cc2)o1` [Compound I-50, 1-[2-(4-Fluorobenzyl)oxazol-5-yl]-3-hydroxy-3-(pyridin-2-yl)propenone] came in with a melting point of 108 to 109 °C. The compound also had an IC50 on HIV-1 integrase of 1.23 µM. The like results for `O=C(C=C(O)c1ncccn1)c1cnc(Cc2ccc(F)cc2)o1` [Compound I-51, 1-[2-(4-Fluorobenzyl)oxazol-5-yl]-3-hydroxy-3-(pyrimidin-2-yl)propenone] were, in that order, 97 to 100 °C and 1.48 µM. For the compound `CC(C)Nc1cccnc1N1CCN(C(=O)c2cc3cc(NS(C)(=O)=O)ccc3[nH]2)CC1` [Delavirdine, 1-[5-methanesulfonamideindolyl-2-carbonyl]-4-[3-(1-methylethylamino)-2-pyridyl]piperadine], the EC50 with HIV (HTLV-IIIB strain) (setting [1]) turned out to be 0.012 mg/L. Still for that read-out and setting: as for `O=c1[nH]cnc2c1ncn2C1CCC(CO)O1` (stereo not shown) [Didanosine, 2′,3′-dideoxyinosine], the figure is 0.64 mg/L.

Take `O=C1Nc2ccc(Cl)cc2C(C#CC2CC2)(C(F)(F)F)O1` [Efavirenz, (S)-(−)-6-chloro-4-(chloropropylethynyl)-1,4-dihydro-4-(trifluoromethyl)-2H-3,1-benzoxazin-2-one]: the EC50 in the data set on HIV (HTLV-IIIB strain) (setting [1]) was 0.00058 mg/L. Still for that read-out and setting: under `CCOCn1c(Cc2ccccc2)c(C(C)C)c(=O)[nH]c1=O` [Emivirine, 6-benzyl-1-(ethoxymethyl)-5-isopropyluracil] stands 0.0045 mg/L. Still for that read-out and setting: as for `CC(C)(C)NC(=O)[C@@H]1CN(Cc2cccnc2)CCN1CC(O)C[C@@H](Cc1ccccc1)C(=O)N[C@H]1c2ccccc2C[C@H]1O` (stereo partly drawn) [Indinavir, [1(1S,2R),5(s)]-2,3,5-trideoxy-N-(2,3-dihydro-2-hydroxy-1H-inden-1-yl)-5-[2-{[(1,1-dimethylethyl)amino]carbonyl}-4-(3-pyridinylmethyl)-1-piperadinyl]-2-(phenylmethyl)-D-erythro-pentonamide], the figure is 0.014 mg/L; as for `Cc1ccnc2c1NC(=O)c1cccnc1N2C1CC1` [Nevirapine], 0.02 mg/L. As to `CC(C)(C)NC(=O)[C@@H]1C[C@@H]2CCCC[C@@H]2CN1C[C@@H](O)[C@H](Cc1ccccc1)NC(=O)[C@H](CC(N)=O)NC(=O)c1ccc2ccccc2n1` [Saquinavir, N-tert-butyl-decahydro-2-[2(R)-hydroxy-4-phenyl-3(S)-{[N-(2-quinolylcarbony)-L-asparginyl]amino}butyl]-(4aS,8aS)-isoquinoline-3(S)-carboxamide], in the data set with HIV (HTLV-IIIB strain) (setting [1]), the EC50 is 0.0037 mg/L. Still for that read-out and setting: as for `Nc1ccn([C@H]2CC[C@@H](CO)O2)c(=O)n1` [Zalcitabine, 2′,3′-dideoxycytidine], the figure is 0.017 mg/L. Take “(±)-α-[(2-acetyl-5-methylphenyl)amino]-2,6-dichlorobenzeneacetomide [Loviride]”: the EC50 in the data set with HIV (HTLV-IIIB strain) is 0.011 mg/L.
